Where a chain is given by its changes, count along the chain named.
Experiments:
Type in all cases: cell-based
HA-ERα D538G = target: T1, HA-ERα D538G (Homo sapiens, UniProt P03372, D538G); experiment: Luciferase assay, overexpressed ER (3×-ERE-TATA-Luciferase reporter); conditions: compound concentration 1 μM, 24 hours
T1 construct: HA; expressed in transfected cells
T1 sequence (P03372 1-595 D538G): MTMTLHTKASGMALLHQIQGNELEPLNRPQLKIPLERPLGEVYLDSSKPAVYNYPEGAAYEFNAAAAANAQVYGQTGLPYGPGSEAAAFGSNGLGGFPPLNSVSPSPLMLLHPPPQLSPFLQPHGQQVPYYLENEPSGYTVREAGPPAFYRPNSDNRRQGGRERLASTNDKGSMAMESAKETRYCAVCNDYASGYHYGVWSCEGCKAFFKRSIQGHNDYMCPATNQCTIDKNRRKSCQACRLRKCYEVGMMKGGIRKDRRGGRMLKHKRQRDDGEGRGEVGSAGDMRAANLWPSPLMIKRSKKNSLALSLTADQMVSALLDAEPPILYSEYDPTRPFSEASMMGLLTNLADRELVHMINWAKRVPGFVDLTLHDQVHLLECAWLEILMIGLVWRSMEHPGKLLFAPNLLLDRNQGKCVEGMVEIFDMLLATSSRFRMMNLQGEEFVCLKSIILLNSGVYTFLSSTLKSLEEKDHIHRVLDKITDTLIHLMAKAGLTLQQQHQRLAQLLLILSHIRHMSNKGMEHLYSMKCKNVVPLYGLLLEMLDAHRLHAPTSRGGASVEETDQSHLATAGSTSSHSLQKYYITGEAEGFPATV
Description: (§1) Luciferase assays were performed to determine the efficacy of the example compounds at inhibiting ER or its mutants' ability to activate transcription of genes.
(§2) Cells were plated at a density of 0.15×10^6 per well of 24 well plates one day prior to transfection. Cells were transfected with 125 ng (per well) of HA-ERα wild type or mutants, 315 ng (per well) of 3×-ERE-TATA-Luciferase reporter and 50 ng (per well) of pRL-TK Renilla Luciferase plasmid, using Xtremegene (Roche). The cells were treated with the various compounds or Fulvestrant at the indicated doses a day after transfection for 24 hours and luciferase activities were determined using the Dual-Luciferase® Reporter Assay System (Promega) according to manufacturer's instructions. Luciferase bioluminescence measurements were performed with the Veritas™ Microplate Luminometer (Promega). All experiments were conducted in triplicate and the Firefly luciferase activity was normalized with the Renilla luciferase activity of each sample.

HA-ERα L536R = target: T2, HA-ERα L536R (Homo sapiens, UniProt P03372, L536R); experiment: as above; conditions: compound concentration 1 μM, 24 hours
T2 construct: HA; expressed in transfected cells
T2 sequence (P03372 1-595 L536R): T1 sequence (P03372 1-595 D538G) with L536R, G538D
Description: as §1, §2

HA-ERα Y537S = target: T3, HA-ERα Y537S (Homo sapiens, UniProt P03372, Y537S); experiment: as above; conditions: compound concentration 1 μM, 24 hours
T3 construct: HA; expressed in transfected cells
T3 sequence (P03372 1-595 Y537S): T1 sequence (P03372 1-595 D538G) with Y537S, G538D
Description: as §1, §2

HA-ERα wild type = target: T4, HA-ERα wild type (Homo sapiens, UniProt P03372); experiment: as above; conditions: compound concentration 1 μM, 24 hours; read-out: Overexpressed ER (% Inhibition) WT
T4 construct: HA; expressed in transfected cells
T4 sequence (P03372 1-595): T1 sequence (P03372 1-595 D538G) with G538D
Description: as §1, §2

MCF7 = experiment: Luciferase assay in MCF7; set-up: concentration or dose not given beside the values
Description: as §1, §2

Structure (SMILES): O=C(NCCCCOc1ccc(C(=C2C3CC4CC(C3)CC2C4)c2ccc(O)cc2)cc1)[C@H]1C[C@@H]2C=C[C@H]1C2 [Example 9, (1R, 2S, 4R)—N-(4-(4-(Adamantan-2-ylidene(4-hydroxyphenyl)methyl)phenoxy)-butyl)bicyclo[2.2.1]hept-5-ene-2-carboxamide]
- inhibition at 1 µM (HA-ERα D538G): 92%
- inhibition at 1 µM (HA-ERα L536R): 89%
- inhibition at 1 µM (HA-ERα Y537S): 33%
- inhibition at 1 µM (HA-ERα wild type): 88%
- MCF7 (% Inhibition) (MCF7): 73%

Structure (SMILES): O=C(NCCCCOc1ccc(C(=C2C3CC4CC(C3)CC2C4)c2ccc(O)cc2)cc1)C1CCC1 [Example 10, N-(4-(4-(Adamantan-2-ylidene(4-hydroxyphenyl)methyl)phenoxy)butyl)-cyclobutanecarboxamide]
- inhibition at 1 µM (HA-ERα D538G): 89%
- inhibition at 1 µM (HA-ERα L536R): 78%
- inhibition at 1 µM (HA-ERα Y537S): 11%
- inhibition at 1 µM (HA-ERα wild type): 84%
- MCF7 (% Inhibition) (MCF7): 66%

Structure (SMILES): CC12CC3CC(C)(C1)CC(C(=O)NCCCCOc1ccc(C(=C4C5CC6CC(C5)CC4C6)c4ccc(O)cc4)cc1)(C3)C2 [Example 7, N-(4-(4-(Adamantan-2-ylidene(4-hydroxyphenyl)methyl)phenoxy)butyl)-3,5-dimethyladamantane-1-carboxamide]
- inhibition at 1 µM (HA-ERα D538G): 83%
- inhibition at 1 µM (HA-ERα L536R): 77%
- inhibition at 1 µM (HA-ERα Y537S): 46%
- inhibition at 1 µM (HA-ERα wild type): 83%
- MCF7 (% Inhibition) (MCF7): 53%

Structure (SMILES): O=C(NCCCCOc1ccc(C(=C2C3CC4CC(C3)CC2C4)c2ccc(O)cc2)cc1)C12CC3CC(CC1C3)C2 [Example 8, N-(4-(4-((Adamantan-2-ylidene)(4-hydroxyphenyl)methyl)phenoxy)butyl)-hexahydro-2,5-methanopentalene-3a(1H)-carboxamide]
- inhibition at 1 µM (HA-ERα D538G): 89%
- inhibition at 1 µM (HA-ERα L536R): 84%
- inhibition at 1 µM (HA-ERα Y537S): 31%
- inhibition at 1 µM (HA-ERα wild type): 83%
- MCF7 (% Inhibition) (MCF7): 77%

Structure (SMILES): CC(C)(C)OC(=O)N[C@@H](Cc1c[nH]c2ccccc12)C(=O)NCCCCOc1ccc(C(=C2C3CC4CC(C3)CC2C4)c2ccc(O)cc2)cc1 [Example 1, (S)-tert-Butyl (1-((4-(4-(adamantan-2-ylidene(4-hydroxyphenyl)methyl)-phenoxy)butyl)amino)-3-(1H-indol-3-yl)-1-oxopropan-2-yl)carbamate]
- inhibition at 1 µM (HA-ERα D538G): 84%
- inhibition at 1 µM (HA-ERα L536R): 70%
- inhibition at 1 µM (HA-ERα Y537S): 62%
- inhibition at 1 µM (HA-ERα wild type): 71%
- MCF7 (% Inhibition) (MCF7): 71%

Structure (SMILES): O=C(NCCCCOc1ccc(C(=C2C3CC4CC(C3)CC2C4)c2ccc(O)cc2)cc1)[C@H]1CC[C@H](C(F)(F)F)CC1 [Example 14, (trans)-N-(4-(4-(Adamantan-2-ylidene(4-hydroxyphenyl)methyl)phenoxy)-butyl)-4-(trifluoromethyl)cyclohexanecarboxamide]
- inhibition at 1 µM (HA-ERα D538G): 88%
- inhibition at 1 µM (HA-ERα L536R): 82%
- inhibition at 1 µM (HA-ERα Y537S): 26%
- inhibition at 1 µM (HA-ERα wild type): 81%
- MCF7 (% Inhibition) (MCF7): 72%

Structure (SMILES): O=C(NCCCCOc1ccc(C(=C2C3CC4CC(C3)CC2C4)c2ccc(O)cc2)cc1)C1CCC(F)(F)CC1 [Example 13, N-(4-(4-(Adamantan-2-ylidene(4-hydroxyphenyl)methyl)phenoxy)butyl)-4,4-difluorocyclohexanecarboxamide]
- inhibition at 1 µM (HA-ERα D538G): 92%
- inhibition at 1 µM (HA-ERα L536R): 90%
- inhibition at 1 µM (HA-ERα Y537S): 46%
- inhibition at 1 µM (HA-ERα wild type): 90%
- MCF7 (% Inhibition) (MCF7): 80%

Structure (SMILES): O=C(NCCCCOc1ccc(C(=C2C3CC4CC(C3)CC2C4)c2ccc(O)cc2)cc1)C1CCCCCC1 [Example 12, N-(4-(4-(Adamantan-2-ylidene(4-hydroxyphenyl)methyl)phenoxy)butyl)-cycloheptanecarboxamide]
- inhibition at 1 µM (HA-ERα D538G): 92%
- inhibition at 1 µM (HA-ERα L536R): 87%
- inhibition at 1 µM (HA-ERα Y537S): 58%
- inhibition at 1 µM (HA-ERα wild type): 90%
- MCF7 (% Inhibition) (MCF7): 82%

Structure (SMILES): O=C(NCCCCOc1ccc(C(=C2C3CC4CC(C3)CC2C4)c2ccc(O)cc2)cc1)C1CCCCC1 [Example 11, N-(4-(4-(Adamantan-2-ylidene(4-hydroxyphenyl)methyl)phenoxy)butyl)-cyclohexanecarboxamide]
- inhibition at 1 µM (HA-ERα D538G): 91%
- inhibition at 1 µM (HA-ERα L536R): 79%
- inhibition at 1 µM (HA-ERα Y537S): 86%
- inhibition at 1 µM (HA-ERα wild type): 89%
- MCF7 (% Inhibition) (MCF7): 84%

Structure (SMILES): O=C(NCCCCOc1ccc(C(=C2C3CC4CC(C3)CC2C4)c2ccc(O)cc2)cc1)C12CC3CC(CC(C3)C1)C2 [Example 6, N-(4-(4-(Adamantan-2-ylidene(4-hydroxyphenyl)methyl)phenoxy)-butyl)adamantane-1-carboxamide]
- inhibition at 1 µM (HA-ERα D538G): 87%
- inhibition at 1 µM (HA-ERα L536R): 70%
- inhibition at 1 µM (HA-ERα Y537S): 62%
- inhibition at 1 µM (HA-ERα wild type): 84%
- MCF7 (% Inhibition) (MCF7): 70%
